# Values of other authors as cited in patent publication US20070009589A1, “EXTENDED RELEASE COMPOSITIONS” (priority 2005, published 2007).
# Columns and labels:
# [1] = in water
Compound,water solubility [1],Log P
"COCCc1ccc(OCC(O)CNC(C)C)cc1 (racemic) [Metoprolol succinate, (±)-1-(isopropylamino)-3-[p-(2-methoxyethyl)phenoxy]-2-propanol succinate (2:1)]",freely soluble in water,–
COCCc1ccc(OCC(O)CNC(C)C)cc1 (stereo not drawn) [Metoprolol],low water solubility,2.48
